Earlier results on one compound are cited in US10092644B2, “Use of fluorinated cyclic dinucleotides as oral vaccine adjuvants” (BROCK UNIVERSITY, priority 2013, dated 2018).

The data set has as its system S. penuemoniae pneumolysin toxid (PdB) or pneumococal surface protection (PspA). As to conditions: mice, interperitoneally, PdB or PspA adjuvanted with c-di-GMP (Chen et al. 2010; Ogunniyi et al. 2008); cited from earlier work.

As for `Nc1nc2c(ncn2C2OC3COP(=O)(O)OC4C(COP(=O)(O)OC3C2O)OC(n2cnc3c(=O)[nH]c(N)nc32)C4O)c(=O)[nH]1` (stereo not shown) [c-di-GMP, 3′,5′-cyclic diguanylic acid], the antigen-specific antibody response entry is “enhanced”.
